Test system: N27 rat dopaminergic neural cells
Experiment: MTT assay in N27 rat dopaminergic neural cells: inhibition of RSL3-induced cell death (ferroptosis)
Format: cell-based
Settings: Rattus norvegicus, N27, 24 h, ferroptosis induced by 0.5 μM RSL3, 24 hours, viability by MTT

`CC(C)(C)Nc1ccc(-c2ccncc2)nc1NC1CCCC1` [Compound L-04, N^3-tert-butyl-N^2-cyclopentyl-6-(4-pyridyl)pyridine-2,3-diamine] showed an IC50 of 5 nM.

In the case of `C(#Cc1nc2c(c(NC3CCCC3)n1)NCCC2)c1ccccc1` [Compound C-91, N-cyclopentyl-2-(2-phenylethynyl)-5,6,7,8-tetrahydropyrido[3,2-d]pyrimidin-4-amine], the IC50 is reported as 35 nM.

With `CCCCC(OC)c1cc2c(c(Nc3ccccn3)c1)NCCC2` (centres unmarked) [Compound B-397, 6-(1-methoxypentyl)-N-(2-pyridyl)-1,2,3,4-tetrahydroquinolin-8-amine] the IC50 was 70 nM.

For `CCCCC(O)c1nc2c(c(NC(C)(C)C)n1)NCCC2` (centres unmarked) [Compound A-00, 1-[4-(tert-butylamino)-5,6,7,8-tetrahydropyrido[3,2-d]pyrimidin-2-yl]pentan-1-ol], the IC50 was 139 nM.

With `CCCCC(=O)c1cc2c(c(NC(C)(C)C)n1)NCCC2` [Compound S-168, 1-[8-(tert-butylamino)-1,2,3,4-tetrahydro-1,7-naphthyridin-6-yl]pentan-1-one] the IC50 was 13 nM.
